BindingDB's records for PubMed 1706716 (Duke University, 1991)

Assays:
[1] = target: T1, Alpha-1A adrenergic receptor (Bos taurus, UniProt P18130)
T1 sequence (P18130 whole entry): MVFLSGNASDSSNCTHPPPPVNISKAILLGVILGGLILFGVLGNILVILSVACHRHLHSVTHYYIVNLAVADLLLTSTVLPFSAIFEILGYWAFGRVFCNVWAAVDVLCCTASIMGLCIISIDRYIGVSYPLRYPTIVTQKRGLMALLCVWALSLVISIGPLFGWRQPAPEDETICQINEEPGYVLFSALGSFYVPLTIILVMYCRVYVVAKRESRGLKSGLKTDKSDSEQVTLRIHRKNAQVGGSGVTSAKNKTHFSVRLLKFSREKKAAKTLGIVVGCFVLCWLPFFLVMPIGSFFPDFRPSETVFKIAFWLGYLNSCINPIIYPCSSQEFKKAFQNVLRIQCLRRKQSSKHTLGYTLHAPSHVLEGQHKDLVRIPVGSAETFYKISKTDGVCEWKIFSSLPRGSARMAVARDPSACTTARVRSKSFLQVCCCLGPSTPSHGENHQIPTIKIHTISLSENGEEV

[2] = target: T2, Alpha-1B adrenergic receptor (Rattus norvegicus, UniProt P15823)
T2 sequence (P15823 whole entry): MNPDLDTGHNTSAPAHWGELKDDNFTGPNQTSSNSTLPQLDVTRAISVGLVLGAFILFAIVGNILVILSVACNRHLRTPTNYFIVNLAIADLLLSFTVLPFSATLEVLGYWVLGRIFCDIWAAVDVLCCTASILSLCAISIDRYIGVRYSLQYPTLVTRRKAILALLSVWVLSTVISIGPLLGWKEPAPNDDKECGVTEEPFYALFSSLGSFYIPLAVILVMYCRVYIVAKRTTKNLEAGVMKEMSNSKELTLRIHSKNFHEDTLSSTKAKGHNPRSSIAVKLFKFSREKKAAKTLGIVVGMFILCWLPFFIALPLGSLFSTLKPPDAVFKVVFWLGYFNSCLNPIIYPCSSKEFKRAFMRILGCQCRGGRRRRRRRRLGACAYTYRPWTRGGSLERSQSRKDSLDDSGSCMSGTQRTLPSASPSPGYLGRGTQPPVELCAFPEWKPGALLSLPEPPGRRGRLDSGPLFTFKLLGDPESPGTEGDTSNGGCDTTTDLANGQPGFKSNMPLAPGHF

[3] = target: T3, Alpha-1A adrenergic receptor (Rattus norvegicus, UniProt P43140)
T3 sequence (P43140 whole entry): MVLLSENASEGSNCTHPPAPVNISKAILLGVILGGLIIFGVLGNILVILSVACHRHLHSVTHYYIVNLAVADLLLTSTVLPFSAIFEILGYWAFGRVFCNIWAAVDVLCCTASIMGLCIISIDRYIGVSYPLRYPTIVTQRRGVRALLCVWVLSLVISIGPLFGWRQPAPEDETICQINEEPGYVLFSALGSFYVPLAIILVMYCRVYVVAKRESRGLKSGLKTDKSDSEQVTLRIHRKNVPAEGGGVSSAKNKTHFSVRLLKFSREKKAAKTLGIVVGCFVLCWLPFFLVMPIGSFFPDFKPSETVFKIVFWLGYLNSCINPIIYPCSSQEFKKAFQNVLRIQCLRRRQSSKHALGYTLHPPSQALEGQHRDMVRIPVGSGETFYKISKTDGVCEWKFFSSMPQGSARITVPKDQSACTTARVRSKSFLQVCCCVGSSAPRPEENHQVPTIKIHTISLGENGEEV

Row | Structure (SMILES) | Ki [1] [nM] | Ki [2] [nM] | Ki [3] [nM]
1 | NCC(O)c1ccc(O)c(O)c1 (stereo not drawn) [Noradrenaline,(+)] | 9730 |  | 
2 | COC(=O)[C@@H]1[C@H]2C[C@H]3c4[nH]c5ccccc5c4CCN3C[C@@H]2CC[C@@H]1O [yohimbic acid methyl ester] |  | 517 | 
3 | CNC[C@H](O)c1cccc(O)c1 [PHENYLEPHRINE] | > 10000 |  | 
4 | O=C(NC1CCN(CCc2c[nH]c3ccccc23)CC1)c1ccccc1 [N-{1-[2-(1H-Indol-3-yl)-ethyl]-piperidin-4-yl}-benzamide(indoramin)] |  | 226 | 611
5 | Cc1ccc(N(CC2=NCCN2)c2cccc(O)c2)cc1 [SMR000059054] | 15.3 |  | 
6 | Cc1cc(C(C)(C)C)c(O)c(C)c1CC1=NCCN1 [SMR000059324] | 114 |  | 
7 | COc1cccc(OC)c1OCCNCC1Oc2ccccc2OC1c1ccccc1 (stereo not drawn) [NSC_185453] | 0.68 | 28.6 | 2.1
8 | COc1ccc(OC)c(C(O)C(C)N)c1 (stereo not drawn) | > 10000 | 1610 | > 10000
